We go through 17 compounds from ChEMBL document CHEMBL2311536 (J Med Chem, 2013).

SMILES strings stand for the structures. Active and inactive are the calls of the source. No cut-off for these calls is given here.

Test [1] addresses T1, Egl nine homolog 1 (Homo sapiens, UniProt Q9GZT9). Kind of test: Displacement of 2OG from catalytic domain of PHD2 (181 to 426) (unknown origin) Zn2 expressed in Escherichia coli at 150 uM.
Target sequence in this assay (Q9GZT9 2-426 limits assumed): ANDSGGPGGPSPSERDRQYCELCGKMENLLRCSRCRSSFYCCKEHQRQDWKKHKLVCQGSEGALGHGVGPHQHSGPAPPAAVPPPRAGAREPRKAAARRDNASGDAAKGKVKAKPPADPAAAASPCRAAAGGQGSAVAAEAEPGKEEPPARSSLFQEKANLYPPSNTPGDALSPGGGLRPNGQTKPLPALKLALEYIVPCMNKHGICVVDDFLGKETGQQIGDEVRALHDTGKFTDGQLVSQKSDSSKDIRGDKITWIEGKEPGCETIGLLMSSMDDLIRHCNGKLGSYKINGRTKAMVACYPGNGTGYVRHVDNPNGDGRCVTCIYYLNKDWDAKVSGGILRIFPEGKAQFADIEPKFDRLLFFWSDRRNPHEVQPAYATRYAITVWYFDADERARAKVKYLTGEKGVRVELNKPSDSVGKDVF
Test [2] deals with T1, Egl nine homolog 1. In words: Displacement of [13C]-2OG from catalytic domain of PHD2 (181 to 426) (unknown origin) expressed in Escherichia coli.
Target sequence in this assay (Q9GZT9 whole entry, the tested form may be a part): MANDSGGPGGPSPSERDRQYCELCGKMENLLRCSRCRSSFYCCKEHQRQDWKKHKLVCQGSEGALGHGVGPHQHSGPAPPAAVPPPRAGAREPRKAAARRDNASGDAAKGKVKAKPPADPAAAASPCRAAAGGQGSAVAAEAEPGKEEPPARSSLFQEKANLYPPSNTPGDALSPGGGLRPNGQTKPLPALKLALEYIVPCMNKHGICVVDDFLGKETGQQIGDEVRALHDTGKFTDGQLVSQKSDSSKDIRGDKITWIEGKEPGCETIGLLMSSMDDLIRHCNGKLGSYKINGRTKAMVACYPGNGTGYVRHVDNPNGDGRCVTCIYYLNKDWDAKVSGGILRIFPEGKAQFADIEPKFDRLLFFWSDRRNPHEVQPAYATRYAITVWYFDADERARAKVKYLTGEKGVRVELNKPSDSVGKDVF
The target of test [3] is T1, Egl nine homolog 1. In words: Binding affinity to human PHD2 catalytic domain (181 to 426) Mn2 expressed in Escherichia coli by NMR spectroscopic analysis.
Target sequence in this assay (Q9GZT9 whole entry, the tested form may be a part): as above
Test [4] addresses T2, Lysine-specific demethylase 2A (Homo sapiens) (UniProt Q9Y2K7).
T2 sequence (whole entry): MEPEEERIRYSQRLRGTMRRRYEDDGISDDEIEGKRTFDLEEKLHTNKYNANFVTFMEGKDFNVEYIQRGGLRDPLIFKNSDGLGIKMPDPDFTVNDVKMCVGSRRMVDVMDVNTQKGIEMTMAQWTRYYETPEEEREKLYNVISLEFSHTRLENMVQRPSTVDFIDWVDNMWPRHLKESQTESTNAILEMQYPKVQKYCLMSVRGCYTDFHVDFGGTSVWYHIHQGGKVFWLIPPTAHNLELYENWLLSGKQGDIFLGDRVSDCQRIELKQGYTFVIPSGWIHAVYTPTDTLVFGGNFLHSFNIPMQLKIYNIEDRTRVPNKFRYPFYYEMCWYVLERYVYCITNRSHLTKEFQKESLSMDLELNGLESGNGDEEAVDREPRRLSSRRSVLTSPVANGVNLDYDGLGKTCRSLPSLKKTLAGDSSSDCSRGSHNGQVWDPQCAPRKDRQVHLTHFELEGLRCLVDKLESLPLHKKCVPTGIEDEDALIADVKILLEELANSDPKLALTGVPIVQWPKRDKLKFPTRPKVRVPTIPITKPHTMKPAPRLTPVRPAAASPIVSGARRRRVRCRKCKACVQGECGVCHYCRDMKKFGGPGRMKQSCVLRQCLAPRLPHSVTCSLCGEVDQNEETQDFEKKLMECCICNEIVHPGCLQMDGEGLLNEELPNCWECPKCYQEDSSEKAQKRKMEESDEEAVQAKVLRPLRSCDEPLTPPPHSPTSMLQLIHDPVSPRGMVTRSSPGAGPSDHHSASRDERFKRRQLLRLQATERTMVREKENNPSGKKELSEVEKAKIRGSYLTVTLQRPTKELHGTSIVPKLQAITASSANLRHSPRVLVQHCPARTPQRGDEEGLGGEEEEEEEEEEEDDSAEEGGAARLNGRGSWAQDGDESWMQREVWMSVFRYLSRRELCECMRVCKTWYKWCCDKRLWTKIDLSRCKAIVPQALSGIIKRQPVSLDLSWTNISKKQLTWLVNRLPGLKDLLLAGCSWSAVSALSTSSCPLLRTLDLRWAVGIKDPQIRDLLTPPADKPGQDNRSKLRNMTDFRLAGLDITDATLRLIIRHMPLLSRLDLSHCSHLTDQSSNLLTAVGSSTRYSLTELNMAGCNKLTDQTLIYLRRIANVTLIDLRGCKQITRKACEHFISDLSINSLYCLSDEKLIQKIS
Kind of test: Displacement of 2OG from FBXL11 (1 to 517) (unknown origin) expressed in Escherichia coli at 800 uM.

Test [5] deals with T1, Egl nine homolog 1. In words: Inhibition of human PHD2 catalytic domain (181 to 426) Mn2 expressed in Escherichia coli by NMR spectroscopic analysis.
Target sequence in this assay (Q9GZT9 whole entry, the tested form may be a part): as the sequence (Q9GZT9 whole entry, the tested form may be a part) above
A short description of test [6]: (§1) Displacement of 2OG from FIH (unknown origin) expressed in Escherichia coli at 400 uM. The settings on record: Homo sapiens.
A short description of test [7]: Inhibition of human FIH catalytic domain Mn2 expressed in Escherichia coli by NMR spectroscopic analysis.
The nature of test [8]: Binding affinity to human FIH catalytic domain Mn2 expressed in Escherichia coli by NMR spectroscopic analysis.
In test [9] the target is T1, Egl nine homolog 1. In words: Inhibition of PHD2 (unknown origin).
Target sequence in this assay (Q9GZT9 whole entry, the tested form may be a part): as the sequence (Q9GZT9 whole entry, the tested form may be a part) above
For a further test, the species on record is Homo sapiens. Described as §1.
The target of test [10] is T1, Egl nine homolog 1. Kind of test: Displacement of 2OG from catalytic domain of PHD2 (181 to 426) (unknown origin) Zn2 expressed in Escherichia coli at 400 uM.
Target sequence in this assay (Q9GZT9 2-426 limits assumed): as the sequence (Q9GZT9 2-426 limits assumed) above

For the compound `CCOC(=O)c1ccc(O)c(O)c1`, the inhibition result at Egl nine homolog 1 [1] is “inactive”.
On to `O=C(O)/C=C/c1ccc(O)c(O)c1`, for which, on Egl nine homolog 1 [1], the inhibition entry was “inactive”.
In the case of `O=C(O)Cc1cs/c(=N\C(=O)CS(=O)(=O)Cc2ccc3ccccc3c2)n1O`, the Kd came out at 0.11 µM on Egl nine homolog 1 [2] and 0.1 µM on Egl nine homolog 1 [3]. In addition, the inhibition in test [4] amounted to 90%. This compound showed a half-maximal inhibitory concentration (IC50) at Egl nine homolog 1 [5] of 0.02 µM.
`O=C(O)c1ccc(O)c2ncccc12`: the results for the inhibition in test [4] and in test [6] were 65% and 75%, respectively. The 50% inhibitory concentration (IC50) in test [7] came to 20 µM. The Kd in test [8] turned out to be 30 µM.
As to `O=C(O)CC(C(=O)O)C(O)C(=O)O` (stereo unspecified) [ISOCITRATE], the IC50 against Egl nine homolog 1 [9] is > 10000 µM. Moreover, in the test filed under Homo sapiens, the inhibition entry is “inactive”.
In the case of `CC(O)C(C)O` (stereo unspecified), the inhibition entry at Egl nine homolog 1 [1] is “inactive”.
Take `Oc1ccccc1O`: on Egl nine homolog 1 [1], the inhibition entry was “inactive”.
On to `O=C(O)CCC(=O)O`, for which the inhibition result in the test listed under Homo sapiens is “inactive”.
Consider `O=C(O)c1ccnc(C(=O)O)c1`, for which the inhibition in test [4] turned out to be 70%.
On to `O=C(O)c1ccc(O)c(O)c1`, for which the inhibition result on Egl nine homolog 1 [1] is “inactive”.
As to `O=C(O)CC(O)C(=O)O` (stereo unspecified), the inhibition entry in the test listed under Homo sapiens is “inactive”.
With `O=C(c1ccccc1)c1ccc(O)c(O)c1`, the inhibition entry at Egl nine homolog 1 [1] was “inactive”.
In the case of `O=C(O)/C=C/C(=O)O` [FUMARIC ACID], the Kd on Egl nine homolog 1 [3] was determined as 200 µM. Further, the IC50 on Egl nine homolog 1 [5] was 220 µM.
Turning to `O=C(O)CNC(=O)c1nc(Cl)c2ccccc2c1O`, the inhibition entry in [4] is “inactive”. In test [6], the inhibition was 55%. For the same compound, the IC50 in test [7] is > 25 µM. Moreover, in test [8], the Kd is 140 µM.
Take `O=C(O)CC(O)(CC(=O)O)C(=O)O`: the inhibition result in the test filed under Homo sapiens is “inactive”.
Turning to `O=C(O)CNC(=O)C(=O)O` [N-OXALYLGLYCINE], the inhibition in [4] was 30%; in test [6] it was 85%. The IC50 in test [7] is 50 µM. The compound also showed a Kd in [8] of 4 µM.
`O=C(O)CNC(=O)c1ccc(B(O)O)cn1` displayed an inhibition at Egl nine homolog 1 [10] of 50%.
